Test results from US20260055120A1, “Bicyclic pyrimidinones as inhibitors of NOX4” (Boehringer Ingelheim International GmbH, priority 2024, published 2026).

How the values were obtained:
[1] = target: human NOX4 (hNOX4) (Homo sapiens (Human), UniProt Q9NPH5); experiment: NOX4 inhibition assay (HyPerBlu); assay type: cell-based; conditions: HEK293 cells overexpressing hNOX4, HyPerBlu
Experimental: NOX4 inhibition is assessed utilizing HEK293 cells stably overexpressing human NOX4 (hNOX4), generating constitutively high levels of hydrogen peroxide (H2O2). Cells are cultured in the Dulbecco's Modified Eagle Medium (DMEM) media containing 4.5 g/L glucose supplemented with 10% fetal calf serum and 250 μg/ml Zeocin in an incubator at 37° C. with 5% CO2. For the assay, cells are seeded in 384 well plates. […] After incubation Lumigen HyPerBlu™ is added and cells are incubated for additional 30 min at 24° C. in a humidified incubator. Next, luminescence is measured using an Envision Multimode Plate reader to determine levels of produced H2O2 in the wells.

[2] = target: NOX4 (Homo sapiens (Human), UniProt Q9NPH5); conditions: modified human embryonic kidney (HEK) cells, Amplex Red as detecting reagent; read-out: NOX4 IC50 as disclosed in WO2016207785; cited from earlier work
Chain of NOX4 (Q9NPH5 whole entry, species assumed): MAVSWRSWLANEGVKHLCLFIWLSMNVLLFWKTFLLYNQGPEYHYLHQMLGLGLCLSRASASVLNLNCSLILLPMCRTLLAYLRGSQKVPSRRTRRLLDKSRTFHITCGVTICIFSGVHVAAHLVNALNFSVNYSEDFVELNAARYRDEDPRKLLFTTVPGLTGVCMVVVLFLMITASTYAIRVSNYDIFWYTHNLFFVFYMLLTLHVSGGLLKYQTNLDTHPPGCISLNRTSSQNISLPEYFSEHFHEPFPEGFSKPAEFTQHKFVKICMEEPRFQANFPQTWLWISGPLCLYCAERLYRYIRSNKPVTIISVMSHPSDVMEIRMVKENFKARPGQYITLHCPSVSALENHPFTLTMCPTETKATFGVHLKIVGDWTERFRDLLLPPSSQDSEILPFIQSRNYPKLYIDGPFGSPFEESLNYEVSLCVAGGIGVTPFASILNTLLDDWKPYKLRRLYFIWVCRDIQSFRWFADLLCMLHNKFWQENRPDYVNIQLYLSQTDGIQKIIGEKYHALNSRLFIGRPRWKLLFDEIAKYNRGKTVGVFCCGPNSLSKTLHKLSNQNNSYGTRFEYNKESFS
Chain of NOX4 (P13498 2-195 partner, species assumed): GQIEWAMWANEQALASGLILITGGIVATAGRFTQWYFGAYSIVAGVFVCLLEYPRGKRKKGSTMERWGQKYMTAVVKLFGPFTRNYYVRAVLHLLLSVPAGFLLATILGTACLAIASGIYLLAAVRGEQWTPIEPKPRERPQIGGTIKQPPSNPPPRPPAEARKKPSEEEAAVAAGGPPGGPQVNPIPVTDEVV

Chain of human NOX4 (hNOX4) (Q9NPH5 whole entry): as the sequence (Q9NPH5 whole entry, species assumed) above
Chain of human NOX4 (hNOX4) (P13498 2-195 partner): as the sequence (P13498 2-195 partner, species assumed) above

IC50 [1] [µM]	Structure (SMILES)	IC50 [2] [µM]
79	O=c1c2ncccc2nc(SCc2ccccc2F)n1-c1ccc(Cl)cc1 [WO2005049613 example 59]	–
–	O=C(Nc1ccc2oc(N3CCC34COC4)nc2c1)c1ccc2c(c1)CCO2 [WO2016207785 example 15]	0.4
